Laboratory results taken from patent US20020137929A1, “1 - (3-heterocyclylphenyl) isothiourea, -isourea, -guanidine and -amidine herbicidal agents” (Intellectual Property Department, BASF Aktiengesellschaft, priority 1998, published 2002).

Key:
ABUTH (Velvetleaf) [1] = assay: Postemergence herbicidal evaluation; format: in vivo, Abutilon theophrasti; conditions: postemergence
Summary of the method: (§1)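 Compound is applied as a foliar spray to seedlings about two weeks old, formulated in equal parts acetone and water with 0.5% TWEEN 20 and delivered at 40 psi to give about 0.0156–0.500 kg per hectare. Injury is rated visually 0–9 after four to five weeks.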

ABUTH (Velvetleaf) [2] = assay: Preemergence herbicidal evaluation; format: in vivo, Abutilon theophrasti; conditions: rated 4-5 weeks after treatment
Summary of the method: (§2)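 Greenhouse preemergence test: seed-soil mix sown on ~1 inch soil; aqueous acetone spray at equivalent of ~0.0156–0.500 kg/ha; greenhouse-held and watered; scored 0–9 visually at 4–5 weeks.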

AMBEL (Ragweed, Common) = assay: Preemergence herbicidal evaluation; format: in vivo, Ambrosia artemisifolia; conditions: rated 4-5 weeks after treatment
Summary of the method: as §2

ECHCG (Barnyardgrass) = assay: Preemergence herbicidal evaluation; format: in vivo, Echinochloa crus-galli; conditions: rated 4-5 weeks after treatment
Summary of the method: as §2

GALAP (Galium) [3] = assay: Postemergence herbicidal evaluation; format: in vivo, Galium aparine; conditions: postemergence
Summary of the method: as §1

SETVI (Foxtail, Green) = assay: Postemergence herbicidal evaluation; format: in vivo, Setaria viridis; conditions: postemergence
Summary of the method: as §1

[4] = system: SAGPY (Arrowhead (Pygmaea)); assay: Preemergence weed control under flooded paddy conditions; format: in vivo, Sagittaria pygmaea; conditions: rated 3-4 weeks after treatment
Summary of the method: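 Herbicidal effect is scored visually on a 0-9 scale against an untreated control, three to four weeks after compounds are pipetted into the flood water (1.5 to 3 cm deep) over seeds planted in silt loam at 0.5 cm depth. Rates: about 0.0313 to 0.500 kg/ha.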

ORYSAT (Rice, Tebonnet) = assay: Rice tolerance to post-transplant applications, flooded paddy conditions (Table III); format: in vivo, Oryza sativa, (L.) Tebonnet; conditions: in vivo
Summary of the method: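 Two ten-day-old Tebonnet seedlings transplanted into flooded silt loam (water 1.5 to 3 cm above soil); three days later the water surface was treated with compound in aqueous/acetone 50/50 at about 0.0313 to 0.500 kg/ha. Visual 0-9 injury rating versus control after three to four weeks in greenhouse.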

[5] = system: TRZAWR (Wheat, Winter, cv Riband); assay: Preemergence herbicidal evaluation; format: in vivo, Triticum aestivum; conditions: rated 4-5 weeks after treatment
Summary of the method: as §2

CYPIR (Rice Flatsedge) = assay: Preemergence weed control under flooded paddy conditions; format: in vivo, Cyperus iria; conditions: rated 3-4 weeks after treatment
Summary of the method: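 Silt loam, seeds in top 0.5 cm; flood held 1.5-3 cm; test cpd as acetone/water 50/50 into flood water, ~0.0313-0.500 kg/ha a.i.; greenhouse 3-4 wk; visual 0-9 score vs control.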

GALAP (Galium) [6] = assay: Preemergence herbicidal evaluation; format: in vivo, Galium aparine; conditions: rated 4-5 weeks after treatment
Summary of the method: as §2

[7] = system: GLXMAW (Soybean, Williams); assay: Preemergence herbicidal evaluation; format: in vivo, Glycine max, (L.) Merr. cv Williams; conditions: rated 4-5 weeks after treatment
Summary of the method: as §2

CASOB (Sicklepod) = assay: Postemergence herbicidal evaluation; format: in vivo, Cassia obtusifolia; conditions: postemergence
Summary of the method: as §1

Structure (SMILES): CCOC(=O)CN1C(=O)C(Cc2ccccc2OCC(=O)O)S/C1=N/c1cc(-n2c(=O)cc(C(F)(F)F)n(C)c2=O)c(F)cc1Cl (stereo not shown) [Compound 113, 5-[o-(Carboxymethoxy)benzyl]-2-{{2-chloro-5-[3,6-dihydro-3-methyl-2,6-dioxo-4-(trifluoromethyl)-1(2H)-pyrimidinyl]-4-fluorophenyl}imino}-4-oxo-3-thiazolidineacetic acid, 3-ethyl ester]
- Herbicidal rating ABUTH (ABUTH (Velvetleaf) [1]; rate 0.0158 kg/ha): 9.0
- Herbicidal rating ABUTH (ABUTH (Velvetleaf) [1]; rate 0.0315 kg/ha): 9.0
- Herbicidal rating ABUTH (ABUTH (Velvetleaf) [1]; rate 0.0630 kg/ha): 9.0
- Preemergence herbicidal rating ABUTH (ABUTH (Velvetleaf) [2]; rate 0.0156 kg/ha): 0.0
- Preemergence herbicidal rating ABUTH (ABUTH (Velvetleaf) [2]; rate 0.0313 kg/ha): 1.0
- Preemergence herbicidal rating ABUTH (ABUTH (Velvetleaf) [2]; rate 0.0625 kg/ha): 1.0
- Preemergence herbicidal rating ABUTH (ABUTH (Velvetleaf) [2]; rate 0.1250 kg/ha): 9.0
- Preemergence herbicidal rating ABUTH (ABUTH (Velvetleaf) [2]; rate 0.2500 kg/ha): 9.0
- Preemergence herbicidal rating AMBEL (AMBEL (Ragweed, Common); rate 0.0156 kg/ha): 0.0
- Preemergence herbicidal rating AMBEL (AMBEL (Ragweed, Common); rate 0.0313 kg/ha): 0.0
- Preemergence herbicidal rating AMBEL (AMBEL (Ragweed, Common); rate 0.0625 kg/ha): 0.0
- Preemergence herbicidal rating AMBEL (AMBEL (Ragweed, Common); rate 0.1250 kg/ha): 0.0
- Preemergence herbicidal rating AMBEL (AMBEL (Ragweed, Common); rate 0.2500 kg/ha): 2.0
- Preemergence herbicidal rating ECHCG (ECHCG (Barnyardgrass); rate 0.0156 kg/ha): 0.0
- Preemergence herbicidal rating ECHCG (ECHCG (Barnyardgrass); rate 0.0313 kg/ha): 0.0
- Preemergence herbicidal rating ECHCG (ECHCG (Barnyardgrass); rate 0.0625 kg/ha): 0.0
- Preemergence herbicidal rating ECHCG (ECHCG (Barnyardgrass); rate 0.1250 kg/ha): 0.0
- Preemergence herbicidal rating ECHCG (ECHCG (Barnyardgrass); rate 0.2500 kg/ha): 0.0
- Herbicidal rating GALAP (GALAP (Galium) [3]; rate 0.0158 kg/ha): 1.0
- Herbicidal rating GALAP (GALAP (Galium) [3]; rate 0.0315 kg/ha): 0.0
- Herbicidal rating GALAP (GALAP (Galium) [3]; rate 0.0630 kg/ha): 2.0
- Herbicidal rating SETVI (SETVI (Foxtail, Green); rate 0.0158 kg/ha): 3.0
- Herbicidal rating SETVI (SETVI (Foxtail, Green); rate 0.0630 kg/ha): 3.0
- SAGPY herbicidal effect rating ([4]; 0.0313 kg/ha): 4.0
- SAGPY herbicidal effect rating ([4]; 0.0625 kg/ha): 6.0
- SAGPY herbicidal effect rating ([4]; 0.1250 kg/ha): 9.0
- SAGPY herbicidal effect rating ([4]; 0.2500 kg/ha): 9.0
- ORYSAT herbicidal effect rating (rice tolerance) (ORYSAT (Rice, Tebonnet)): 0.0
- Preemergence herbicidal rating TRZAWR ([5]; rate 0.0156 kg/ha): 0.0
- Preemergence herbicidal rating TRZAWR ([5]; rate 0.0313 kg/ha): 0.0
- Preemergence herbicidal rating TRZAWR ([5]; rate 0.0625 kg/ha): 0.0
- Preemergence herbicidal rating TRZAWR ([5]; rate 0.1250 kg/ha): 0.0
- Preemergence herbicidal rating TRZAWR ([5]; rate 0.2500 kg/ha): 0.0
- CYPIR herbicidal effect rating (CYPIR (Rice Flatsedge); 0.0313 kg/ha): 3.0
- CYPIR herbicidal effect rating (CYPIR (Rice Flatsedge); 0.0625 kg/ha): 5.0
- CYPIR herbicidal effect rating (CYPIR (Rice Flatsedge); 0.1250 kg/ha): 5.0
- CYPIR herbicidal effect rating (CYPIR (Rice Flatsedge); 0.2500 kg/ha): 6.0
- Preemergence herbicidal rating GALAP (GALAP (Galium) [6]; rate 0.0156 kg/ha): 0.0
- Preemergence herbicidal rating GALAP (GALAP (Galium) [6]; rate 0.0313 kg/ha): 0.0
- Preemergence herbicidal rating GALAP (GALAP (Galium) [6]; rate 0.0625 kg/ha): 0.0
- Preemergence herbicidal rating GALAP (GALAP (Galium) [6]; rate 0.1250 kg/ha): 1.0
- Preemergence herbicidal rating GALAP (GALAP (Galium) [6]; rate 0.2500 kg/ha): 3.0
- Preemergence herbicidal rating GLXMAW ([7]; rate 0.0156 kg/ha): 0.0
- Preemergence herbicidal rating GLXMAW ([7]; rate 0.0313 kg/ha): 1.0
- Preemergence herbicidal rating GLXMAW ([7]; rate 0.0625 kg/ha): 0.0
- Preemergence herbicidal rating GLXMAW ([7]; rate 0.1250 kg/ha): 0.0
- Preemergence herbicidal rating GLXMAW ([7]; rate 0.2500 kg/ha): 2.0
- Herbicidal rating CASOB (CASOB (Sicklepod); rate 0.0158 kg/ha): 0.0
- Herbicidal rating CASOB (CASOB (Sicklepod); rate 0.0315 kg/ha): 0.0
- Herbicidal rating CASOB (CASOB (Sicklepod); rate 0.0630 kg/ha): 4.0

Structure (SMILES): C#CCOC(=O)CN1C(=O)CSC1=Nc1cc(-n2c(=O)cc(C(F)(F)F)n(C)c2=O)c(F)cc1Cl [Compound 115, 2-Propynyl 2-{{2-chloro-5-[3,6-dihydro-3-methyl-2,6-dioxo-4-(trifluoromethyl)-1(2H)-pyrimidinyl]-4-fluorophenyl}imino}-4-oxo-3-thiazolidineacetate]
- Herbicidal rating ABUTH (ABUTH (Velvetleaf) [1]; rate 0.0158 kg/ha): 3.0
- Herbicidal rating ABUTH (ABUTH (Velvetleaf) [1]; rate 0.0315 kg/ha): 9.0
- Herbicidal rating ABUTH (ABUTH (Velvetleaf) [1]; rate 0.0630 kg/ha): 9.0
- Preemergence herbicidal rating ABUTH (ABUTH (Velvetleaf) [2]; rate 0.0156 kg/ha): 0.0
- Preemergence herbicidal rating ABUTH (ABUTH (Velvetleaf) [2]; rate 0.0313 kg/ha): 0.0
- Preemergence herbicidal rating ABUTH (ABUTH (Velvetleaf) [2]; rate 0.0625 kg/ha): 0.0
- Preemergence herbicidal rating ABUTH (ABUTH (Velvetleaf) [2]; rate 0.1250 kg/ha): 9.0
- Preemergence herbicidal rating ABUTH (ABUTH (Velvetleaf) [2]; rate 0.2500 kg/ha): 9.0
- Preemergence herbicidal rating AMBEL (AMBEL (Ragweed, Common); rate 0.0156 kg/ha): 0.0
- Preemergence herbicidal rating AMBEL (AMBEL (Ragweed, Common); rate 0.0313 kg/ha): 0.0
- Preemergence herbicidal rating AMBEL (AMBEL (Ragweed, Common); rate 0.0625 kg/ha): 0.0
- Preemergence herbicidal rating AMBEL (AMBEL (Ragweed, Common); rate 0.1250 kg/ha): 0.0
- Preemergence herbicidal rating AMBEL (AMBEL (Ragweed, Common); rate 0.2500 kg/ha): 1.0
- Preemergence herbicidal rating ECHCG (ECHCG (Barnyardgrass); rate 0.0156 kg/ha): 0.0
- Preemergence herbicidal rating ECHCG (ECHCG (Barnyardgrass); rate 0.0313 kg/ha): 0.0
- Preemergence herbicidal rating ECHCG (ECHCG (Barnyardgrass); rate 0.0625 kg/ha): 0.0
- Preemergence herbicidal rating ECHCG (ECHCG (Barnyardgrass); rate 0.1250 kg/ha): 0.0
- Preemergence herbicidal rating ECHCG (ECHCG (Barnyardgrass); rate 0.2500 kg/ha): 0.0
- Herbicidal rating GALAP (GALAP (Galium) [3]; rate 0.0158 kg/ha): 0.0
- Herbicidal rating GALAP (GALAP (Galium) [3]; rate 0.0315 kg/ha): 0.0
- Herbicidal rating GALAP (GALAP (Galium) [3]; rate 0.0630 kg/ha): 2.0
- Herbicidal rating SETVI (SETVI (Foxtail, Green); rate 0.0158 kg/ha): 0.0
- Herbicidal rating SETVI (SETVI (Foxtail, Green); rate 0.0315 kg/ha): 4.0
- Herbicidal rating SETVI (SETVI (Foxtail, Green); rate 0.0630 kg/ha): 9.0
- SAGPY herbicidal effect rating ([4]; 0.0313 kg/ha): 2.0
- SAGPY herbicidal effect rating ([4]; 0.0625 kg/ha): 3.0
- SAGPY herbicidal effect rating ([4]; 0.1250 kg/ha): 5.0
- SAGPY herbicidal effect rating ([4]; 0.2500 kg/ha): 6.0
- Preemergence herbicidal rating TRZAWR ([5]; rate 0.0156 kg/ha): 0.0
- Preemergence herbicidal rating TRZAWR ([5]; rate 0.0313 kg/ha): 0.0
- Preemergence herbicidal rating TRZAWR ([5]; rate 0.0625 kg/ha): 0.0
- Preemergence herbicidal rating TRZAWR ([5]; rate 0.1250 kg/ha): 0.0
- Preemergence herbicidal rating TRZAWR ([5]; rate 0.2500 kg/ha): 4.0
- CYPIR herbicidal effect rating (CYPIR (Rice Flatsedge); 0.0313 kg/ha): 5.0
- CYPIR herbicidal effect rating (CYPIR (Rice Flatsedge); 0.0625 kg/ha): 6.0
- CYPIR herbicidal effect rating (CYPIR (Rice Flatsedge); 0.1250 kg/ha): 9.0
- CYPIR herbicidal effect rating (CYPIR (Rice Flatsedge); 0.2500 kg/ha): 9.0
- Preemergence herbicidal rating GALAP (GALAP (Galium) [6]; rate 0.0156 kg/ha): 1.0
- Preemergence herbicidal rating GALAP (GALAP (Galium) [6]; rate 0.0313 kg/ha): 3.0
- Preemergence herbicidal rating GALAP (GALAP (Galium) [6]; rate 0.0625 kg/ha): 3.0
- Preemergence herbicidal rating GALAP (GALAP (Galium) [6]; rate 0.1250 kg/ha): 7.0
- Preemergence herbicidal rating GALAP (GALAP (Galium) [6]; rate 0.2500 kg/ha): 9.0
- Preemergence herbicidal rating GLXMAW ([7]; rate 0.0156 kg/ha): 0.0
- Preemergence herbicidal rating GLXMAW ([7]; rate 0.0313 kg/ha): 0.0
- Preemergence herbicidal rating GLXMAW ([7]; rate 0.0625 kg/ha): 1.0
- Preemergence herbicidal rating GLXMAW ([7]; rate 0.1250 kg/ha): 3.0
- Preemergence herbicidal rating GLXMAW ([7]; rate 0.2500 kg/ha): 4.0
- Herbicidal rating CASOB (CASOB (Sicklepod); rate 0.0158 kg/ha): 0.0
- Herbicidal rating CASOB (CASOB (Sicklepod); rate 0.0315 kg/ha): 1.0
- Herbicidal rating CASOB (CASOB (Sicklepod); rate 0.0630 kg/ha): 1.0
